Converted amounts (≈) assume the structure as drawn.
Columns and labels:
Test in all cases: ≥ marks a high value that may be exact or a test limit, other limits are often not marked, values filed in µg/mL are converted to µM
[1] = test system: Escherichia coli ATCC 25922
[2] = test system: Klebsiella pneumoniae ATCC 700603
[3] = test system: Pseudomonas aeruginosa ATCC 27853
[4] = test system: Staphylococcus aureus ATCC 29213
[5] = test system: Staphylococcus aureus ATCC 33591
[6] = test system: Staphylococcus aureus ATCC 700699
[7] = test system: Bacillus subtilis CMCC 63501
[8] = test system: Enterococcus faecalis ATCC 29212
Escherichia coli UB1005 = test system: Escherichia coli UB1005
[9] = test system: Salmonella enterica subsp. enterica serovar Pullorum C79-13
[10] = test system: Salmonella enterica subsp. enterica serovar Typhimurium ATCC 14028
[11] = test system: Staphylococcus epidermidis ATCC 12228
[12] = test system: Bacillus subtilis ATCC 6633
[13] = test system: Pseudomonas aeruginosa ATCC BAA-427
[14] = test system: Staphylococcus aureus ATCC 25923
[15] = test system: Salmonella enterica subsp. enterica serovar Typhimurium C77-31
Escherichia coli BL21AI = test system: Escherichia coli BL21AI
[16] = test system: Micrococcus luteus ATCC 10240
[17] = test system: Pseudomonas aeruginosa PAO1
[18] = test system: Bacillus subtilis ATCC 6051
[19] = test system: Escherichia coli NEB5alpha

## CC[C@H](C)[C@H](NC(=O)[C@H](CC(=O)O)NC(=O)[C@H](CCCCN)NC(=O)[C@H](C)NC(=O)[C@H](C)NC(=O)CNC(=O)[C@H](CCCCN)NC(=O)[C@H](CC(C)C)NC(=O)[C@@H](NC(=O)[C@H](CC(=O)O)NC(=O)[C@@H](NC(=O)[C@@H](NC(=O)CN)C(C)C)C(C)C)[C@@H](C)CC)C(=O)N[C@@H](C)C(=O)NCC(=O)N[C@@H](Cc1cnc[nH]1)C(=O)N[C@@H](CC(C)C)C(=O)N[C@@H](C)C(=O)N[C@@H](CO)C(=O)N[C@@H](CCCCN)C(=O)N[C@H](C(=O)N[C@@H](CCSC)C(=O)N[C@@H](CC(N)=O)C(=O)N[C@@H](CCCCN)C(=O)N[C@@H](C)C(N)=O)C(C)C [GVVDILKGAAKDIAGHLASKVMNKA]
[1]
  MIC: > 100 µM
[2]
  MIC: > 100 µM
[3]
  MIC: > 100 µM
[4]
  MIC: > 100 µM
[5]
  MIC: ≥ 100 µM
[6]
  MIC: ≥ 100 µM

## CC(C)[C@H](NC(=O)[C@H](CCCCN)NC(=O)[C@H](C)NC(=O)[C@H](C)NC(=O)[C@H](C)NC(=O)[C@H](CCCCN)NC(=O)[C@H](C)NC(=O)[C@H](C)NC(=O)[C@H](C)NC(=O)[C@H](CCCCN)NC(=O)[C@@H](NC(=O)[C@@H](N)Cc1c[nH]c2ccccc12)C(C)C)C(=O)N[C@@H](Cc1c[nH]c2ccccc12)C(N)=O [WVKAAAKAAAKVW]
[7]
  MIC: ≥ 128 µM
[8]
  MIC: 64 µM (≈ 89.5 µg/mL)
[1]
  MIC: 32 µM (≈ 44.8 µg/mL)
Escherichia coli UB1005
  MIC: ≥ 128 µM
[3]
  MIC: > 128 µM
[9]
  MIC: ≥ 64 µM
[10]
  MIC: > 128 µM
[4]
  MIC: > 128 µM
[11]
  MIC: > 128 µM

## CC(C)C[C@H](NC(=O)[C@H](CC(=O)O)NC(=O)[C@H](CC(C)C)NC(=O)[C@H](CCCCN)NC(=O)[C@H](CC(C)C)NC(=O)[C@H](CC(=O)O)NC(=O)[C@H](CC(C)C)NC(=O)[C@H](CCCCN)NC(=O)[C@H](CC(C)C)NC(=O)[C@H](CC(=O)O)NC(=O)[C@H](CC(C)C)NC(=O)[C@H](CCCCN)NC(=O)[C@H](CCCN=C(N)N)NC(=O)[C@@H](N)CCCN=C(N)N)C(=O)O [RRKLDLKLDLKLDL]
[12]
  MIC: 10 µM (≈ 17.4 µg/mL)
[1]
  MIC: 10 µM (≈ 17.4 µg/mL)
[13]
  MIC: 10 µM (≈ 17.4 µg/mL)
[14]
  MIC: 8 µM (≈ 13.9 µg/mL)

## NC(=O)[C@H](Cc1c[nH]c2ccccc12)NC(=O)[C@H](CCCN=C(N)N)NC(=O)[C@H](Cc1c[nH]c2ccccc12)NC(=O)[C@H](CCCN=C(N)N)NC(=O)[C@H](CS)NC(=O)[C@H](Cc1ccccc1)NC(=O)[C@H](CCCN=C(N)N)NC(=O)[C@H](CCCN=C(N)N)NC(=O)[C@H](CCCN=C(N)N)NC(=O)[C@H](CS)NC(=O)[C@H](CCCN=C(N)N)NC(=O)[C@H](Cc1c[nH]c2ccccc12)NC(=O)[C@H](CCCN=C(N)N)NC(=O)[C@@H](N)Cc1c[nH]c2ccccc12 [WRWRCRRRFCRWRW]
[7]
  MIC: 1 µM (≈ 2.21 µg/mL)
[8]
  MIC: 2 µM (≈ 4.42 µg/mL)
[1]
  MIC: 4 µM (≈ 8.83 µg/mL)
[3]
  MIC: 8 µM (≈ 17.7 µg/mL)
[9]
  MIC: 2 µM (≈ 4.42 µg/mL)
[15]
  MIC: 4 µM (≈ 8.83 µg/mL)
[4]
  MIC: 4 µM (≈ 8.83 µg/mL)
[11]
  MIC: 2 µM (≈ 4.42 µg/mL)

## CC[C@H](C)[C@H](NC(=O)[C@H](CCCN=C(N)N)NC(=O)[C@H](CCCN=C(N)N)NC(=O)[C@@H]1CCCN1C(=O)[C@@H]1CCCN1C(=O)[C@H](CCCN=C(N)N)NC(=O)[C@@H]1CCCN1C(=O)[C@H](CCCN=C(N)N)NC(=O)[C@@H]1CCCN1C(=O)[C@H](CC(C)C)NC(=O)[C@H](Cc1ccc(O)cc1)NC(=O)[C@@H]1CCCN1C(=O)[C@@H]1CCCN1C(=O)[C@H](CCCCN)NC(=O)[C@H](CC(=O)O)NC(=O)[C@@H](N)C(C)C)C(=O)N[C@@H](Cc1ccc(O)cc1)C(=O)N[C@@H](CC(N)=O)C(=O)N[C@@H](Cc1cnc[nH]1)C(N)=O [VDKPPYLPRPRPPRRIYNH]
Escherichia coli BL21AI
  MIC: 6.75 µM (≈ 16 µg/mL)
Escherichia coli UB1005
  MIC: 2.11 µM (≈ 5 µg/mL)
[16]
  MIC: 6.75 µM (≈ 16 µg/mL)
[17]
  MIC: 54 µM (≈ 128 µg/mL)
[14]
  MIC: 38.2 µM (≈ 90.5 µg/mL)

## CC(C)C[C@H](NC(=O)[C@H](CC(=O)O)NC(=O)[C@H](CC(C)C)NC(=O)[C@H](CCCCN)NC(=O)[C@H](CC(C)C)NC(=O)[C@H](CC(=O)O)NC(=O)[C@H](CC(C)C)NC(=O)[C@H](CCCCN)NC(=O)[C@H](CC(C)C)NC(=O)[C@H](CC(=O)O)NC(=O)[C@H](CC(C)C)NC(=O)[C@H](CCCCN)NC(=O)[C@@H](N)CCCN=C(N)N)C(=O)O [RKLDLKLDLKLDL]
[12]
  MIC: 30 µM (≈ 47.5 µg/mL)
[1]
  MIC: 30 µM (≈ 47.5 µg/mL)
[13]
  MIC: ≥ 42 µM
[14]
  MIC: 25 µM (≈ 39.6 µg/mL)

## CC[C@H](C)[C@H](NC(=O)[C@H](C)NC(=O)CNC(=O)[C@H](CCCCN)NC(=O)[C@H](CCC(=O)O)NC(=O)[C@H](CCC(=O)O)NC(=O)[C@H](CC(=O)O)NC(=O)[C@H](CCC(=O)O)NC(=O)[C@H](CC(=O)O)NC(=O)[C@H](CCCN=C(N)N)NC(=O)CNC(=O)[C@H](CCC(N)=O)NC(=O)[C@H](CC(C)C)NC(=O)[C@@H](N)CCCCN)C(=O)N[C@H](C(=O)N[C@@H](CCCCN)C(=O)N[C@H](C(=O)N[C@@H](CCCCN)C(=O)NCC(=O)NCC(=O)N[C@@H](CC(C)C)C(=O)O)C(C)C)C(C)C [KLQGRDEDEEKGAIVKVKGGL]
[18]
  MIC: ≥ 1000 µM
[19]
  MIC: ≥ 500 µM

## CC[C@H](C)[C@H](NC(=O)[C@H](C)NC(=O)CNC(=O)[C@H](CCCCN)NC(=O)[C@H](CCC(=O)O)NC(=O)[C@H](CCC(=O)O)NC(=O)[C@H](CC(=O)O)NC(=O)[C@H](CCC(=O)O)NC(=O)[C@H](CC(N)=O)NC(=O)[C@H](CCCN=C(N)N)NC(=O)CNC(=O)[C@H](CCC(N)=O)NC(=O)[C@H](CC(C)C)NC(=O)[C@@H](N)CCCCN)C(=O)N[C@H](C(=O)N[C@@H](CCCCN)C(=O)N[C@H](C(=O)N[C@@H](CCCCN)C(=O)NCC(=O)NCC(=O)N[C@@H](CC(C)C)C(=O)O)C(C)C)C(C)C [KLQGRNEDEEKGAIVKVKGGL]
[18]
  MIC: ≥ 1000 µM
[19]
  MIC: ≥ 1000 µM

## CC[C@H](C)[C@H](NC(=O)[C@H](CC(=O)O)NC(=O)[C@H](CCCCN)NC(=O)[C@H](C)NC(=O)[C@H](C)NC(=O)CNC(=O)[C@H](CCCCN)NC(=O)[C@H](CC(C)C)NC(=O)[C@@H](NC(=O)[C@H](CC(=O)O)NC(=O)[C@@H](NC(=O)[C@@H](NC(=O)CN)C(C)C)C(C)C)[C@@H](C)CC)C(=O)N[C@@H](C)C(=O)NCC(=O)N[C@@H](Cc1cnc[nH]1)C(=O)N[C@@H](CC(C)C)C(=O)N[C@@H](C)C(=O)N[C@@H](CO)C(=O)N[C@@H](CCCCN)C(=O)N[C@H](C(=O)N[C@@H](CCSC)C(=O)N[C@@H](C)C(=O)N[C@@H](CCCCN)C(=O)N[C@@H](CC(C)C)C(N)=O)C(C)C [GVVDILKGAAKDIAGHLASKVMAKL]
[1]
  MIC: 50 µM (≈ 125 µg/mL)
[2]
  MIC: 100 µM (≈ 251 µg/mL)
[3]
  MIC: > 100 µM
[4]
  MIC: > 100 µM
[5]
  MIC: ≥ 100 µM
[6]
  MIC: ≥ 100 µM

## CC[C@H](C)[C@H](N)C(=O)N[C@@H](CCCN=C(N)N)C(=O)N[C@@H](CS)C(=O)N[C@@H](CCCN=C(N)N)C(=O)N[C@@H](CCCN=C(N)N)C(=O)N[C@@H](CCCN=C(N)N)C(=O)N[C@@H](Cc1ccccc1)C(=O)N[C@@H](CS)C(=O)N[C@@H](CCCN=C(N)N)C(=O)N[C@H](C(N)=O)[C@@H](C)CC [IRCRRRFCRI]
[7]
  MIC: 4 µM (≈ 5.51 µg/mL)
[8]
  MIC: 64 µM (≈ 88.2 µg/mL)
[1]
  MIC: 8 µM (≈ 11 µg/mL)
[3]
  MIC: 64 µM (≈ 88.2 µg/mL)
[9]
  MIC: 16 µM (≈ 22 µg/mL)
[15]
  MIC: ≥ 128 µM
[4]
  MIC: 64 µM (≈ 88.2 µg/mL)
[11]
  MIC: 64 µM (≈ 88.2 µg/mL)

## CC[C@H](C)[C@H](NC(=O)[C@H](CC(=O)O)NC(=O)[C@H](CCCCN)NC(=O)[C@H](C)NC(=O)[C@H](C)NC(=O)CNC(=O)[C@H](CCCCN)NC(=O)[C@H](CC(C)C)NC(=O)[C@@H](NC(=O)[C@H](CC(=O)O)NC(=O)[C@@H](NC(=O)[C@@H](NC(=O)CN)C(C)C)C(C)C)[C@@H](C)CC)C(=O)N[C@@H](C)C(=O)NCC(=O)N[C@@H](Cc1cnc[nH]1)C(=O)N[C@@H](CC(C)C)C(=O)N[C@@H](CC(C)C)C(=O)N[C@@H](CO)C(=O)N[C@@H](CCCCN)C(=O)N[C@H](C(=O)N[C@@H](CCSC)C(=O)N[C@@H](CC(N)=O)C(=O)N[C@@H](CCCCN)C(=O)N[C@@H](CC(C)C)C(N)=O)C(C)C [GVVDILKGAAKDIAGHLLSKVMNKL]
[1]
  MIC: 12.5 µM (≈ 32.4 µg/mL)
[2]
  MIC: 50 µM (≈ 130 µg/mL)
[3]
  MIC: 100 µM (≈ 259 µg/mL)
[4]
  MIC: 100 µM (≈ 259 µg/mL)
[5]
  MIC: 25 µM (≈ 64.8 µg/mL)
[6]
  MIC: ≥ 100 µM

## CC(C)C[C@H](NC(=O)[C@H](CCCN=C(N)N)NC(=O)[C@H](CC(C)C)NC(=O)[C@H](CC(C)C)NC(=O)[C@H](CCC(N)=O)NC(=O)[C@H](CCC(=O)O)NC(=O)[C@H](CC(C)C)NC(=O)[C@H](Cc1ccc(O)cc1)NC(=O)CNC(=O)[C@@H](N)CC(C)C)C(=O)O [LGYLEQLLRL]
[19]
  MIC: ≥ 1360 µM

— DBAASP
